Values of other authors as cited in US20130344444A1, “PROCESS FOR MAKING LITHOGRAPHIC PRINTING PLATE” (FUJIFILM Corporation, priority 2011, published 2013).

| solubility in water | solubility in water (in words) | SMILES |
| --- | --- | --- |
| 0.3 g/100 mL of water |  | CCCCC(CC)COCCOCCO (stereo not drawn) [Diethylene glycol mono-2-ethylhexyl ether] |
| 4.0 g/100 mL of water |  | OCc1ccccc1 [Benzyl alcohol, reference compound] |
| 2.7 g/100 mL of water |  | OCCOc1ccccc1 [Ethyleneglycol monophenyl ether, reference compound] |
|  | mutually mixing | CC(C)(C)OCCO [Ethylene glycol mono-t-butyl ether] |
| 4.4 g/100 mL of water |  | CCCCOCC(C)O (stereo not drawn) [Propylene glycol mono-n-butyl ether] |
| 1.0 g/100 mL of water |  | CCCCCCOCCO [Ethylene glycol mono-n-hexyl ether] |
